The values below are quoted from earlier work in patent US20150246043A1, “ORAL DOSAGE FORMS FOR MODIFIED RELEASE COMPRISING RUXOLITINIB” (ratiopharm GmbH, priority 2012, published 2015).

For data set [1] the following is noted: reported for Ruxolitinib and especially its pharmaceutically acceptable salts like the phosphate salt (WO 2008/157208).
The conditions of data set [2]: class I = high permeability, high solubility.

For `N#CC[C@H](C1CCCC1)n1cc(-c2ncnc3[nH]ccc23)cn1` [Ruxolitinib, (3R)-3-cyclopentyl-3-[4-(7H-pyrrolo[2,3-d]pyrimidin-4-yl)pyrazol-1-yl]propanenitrile], the aqueous solubility entry in data set [1] is “very high”. Further, the “Biopharmaceutics Classification System class” value in data set [2] is listed as “class I”.
